Data: PMC8308496, “RP-18 TLC Chromatographic and Computational Study of Skin Permeability of Steroids” (Pharmaceuticals, 2021)
Like-named read-outs stand apart in the source and are kept apart here.

Key:
[1] = RP-18 thin layer chromatography (RM); type: physicochemical; details: RP-18 F254s TLC, acetonitrile/pH 7.4 phosphate buffered saline 70:30 (v/v); RM = log (1/Rf−1)
Description: Thin layer chromatography was performed according to [33] on 10 × 20 cm glass-backed RP-18 F254s TLC plates from Merck, Germany (layer thickness 0.25 mm). Before use, the plates were prewashed with methanol-dichloromethane 1:1 (v/v) and dried overnight in ambient conditions. […] The chromatographic plates were developed in a vertical chromatographic chamber lined with filter paper and previously saturated with the mobile phase vapor for 20 min. The mobile phase consisted of acetonitrile/pH 7.4 phosphate buffered saline 70:30 (v/v). The development distance was 95 mm from the plate bottom edge. After development, the plates were dried at room temperature and examined under UV light (254 nm) and with the Desaga CD60 densitometer (Multiwavelength Scan, 200–300 nm at 20 nm intervals). All chromatograms were repeated in duplicate, and the mean Rf values were used in further investigations. The chromatographic parameter RM considered in these investigations was defined by Bate-Smith and Westall: RM= log (1/Rf−1).

[2] = experimental, cited from earlier work
[3] = hydrocortisone esters 17 to 27, ref 40 (Anderson et al.)
[4] = nonsteroid compounds 39 to 46, source not given

## CC(=O)[C@H]1CC[C@H]2[C@@H]3CCC4=CC(=O)CC[C@]4(C)[C@H]3CC[C@]12C [compound 3, Progesterone]
[1]
  RM: 0.60

## CC(=O)OCC(=O)[C@H]1CC[C@H]2[C@@H]3CCC4=CC(=O)CC[C@]4(C)[C@H]3CC[C@]12C [compound 30, Deoxycortisone acetate]
[1]
  RM: 0.41

## C[C@]12CCC(=O)C=C1CC[C@@H]1[C@@H]2C(=O)C[C@@]2(C)[C@H]1CC[C@]2(O)C(=O)CO [compound 16, Cortisone]
[2]; compounds 1 to 16
  logKp^exp: −5.00

## CNC(=C[N+](=O)[O-])NCCSCc1ccc(CN(C)C)o1 [compound 40, Ranitidine]
[1]
  RM: −0.66

## CCCCCCC(=O)O[C@H]1CC[C@H]2[C@@H]3CCC4=CC(=O)CC[C@]4(C)[C@H]3CC[C@]12C [compound 34, Testosterone enanthate]
[1]
  RM: 1.38

## C[C@]12CC[C@@H]3c4ccc(O)cc4CC[C@H]3[C@@H]1CC[C@@H]2O [compound 14, Estradiol]
[2]; compounds 1 to 16
  logKp^exp: −2.21

## CCC(=O)O[C@H]1CC[C@H]2[C@@H]3CCC4=CC(=O)CC[C@]4(C)[C@H]3CC[C@]12C [compound 32, Testosterone propionate]
[1]
  RM: 0.85

## C[C@]12CCC(=O)C=C1CC[C@@H]1[C@@H]2[C@@H](O)C[C@]2(C=O)[C@@H](C(=O)CO)CC[C@@H]12 [compound 6, Aldosterone]
[2]; compounds 1 to 16
  logKp^exp: −4.41

## C[C@]12CC[C@H]3[C@@H](CCC4=CC(=O)CC[C@@]43C)[C@@H]1CC[C@@H]2C(=O)CO [compound 11, Deoxycorticosterone]
[2]; compounds 1 to 16
  logKp^exp: −3.34

## C[C@]12CC[C@@H]3c4ccc(OC(=O)c5ccccc5)cc4CC[C@H]3[C@@H]1CC[C@@H]2O [compound 28, Estradiol benzoate]
[1]
  RM: 0.91

## CCCCCC(=O)OCC(=O)[C@@]1(O)CC[C@H]2[C@@H]3CCC4=CC(=O)CC[C@]4(C)[C@H]3[C@@H](O)C[C@@]21C [compound 26, HC hexanoate]
[2]; [3]
  logKp^exp: −1.74

## CC(=O)Oc1ccccc1C(=O)O [compound 41, Aspirin]
[1]
  RM: −0.50
[2]; [4]
  logKp^exp: −2.14

## CCCCCCCC(=O)OCC(=O)[C@@]1(O)CC[C@H]2[C@@H]3CCC4=CC(=O)CC[C@]4(C)[C@H]3[C@@H](O)C[C@@]21C [compound 27, HC octanoate]
[2]; [3]
  logKp^exp: −1.21

## C[C@]12CCC(=O)C=C1CC[C@@H]1[C@@H]2[C@@H](O)C[C@@]2(C)[C@H]1CC[C@]2(O)C(=O)CO [compound 2, Hydrocortisone]
[1]
  RM: −0.33
[2]; compounds 1 to 16
  logKp^exp: −4.79

## COC(=O)c1ccc(O)cc1 [compound 42, Methylparaben]
[1]
  RM: −0.41
[2]; [4]
  logKp^exp: −2.04

## COC(=O)[C@@H]1CC2=CC(=O)CC[C@]2(C)[C@@]23O[C@@H]2C[C@@]2(C)[C@@H](CC[C@@]24CCC(=O)O4)[C@H]13 [compound 36, Eplerenone]
[1]
  RM: −0.21

## COC(=O)CCCCCC(=O)OCC(=O)[C@@]1(O)CC[C@H]2[C@@H]3CCC4=CC(=O)CC[C@]4(C)[C@H]3[C@@H](O)C[C@@]21C [compound 25, HC methylpimelate]
[2]; [3]
  logKp^exp: −2.27

## CN1C(C(=O)Nc2ccccn2)=C(O)c2ccccc2S1(=O)=O [compound 45, Piroxicam]
[1]
  RM: 0.00
[2]; [4]
  logKp^exp: −3.81

## C[C@]12CCC(=O)C=C1CC[C@@H]1[C@@H]2CC[C@@]2(C)[C@H]1CC[C@]2(O)C(=O)CO [compound 13, Cortexolone]
[2]; compounds 1 to 16
  logKp^exp: −4.12

## CC(=O)OCC(=O)[C@@]1(O)CC[C@H]2[C@@H]3CCC4=CC(=O)CC[C@]4(C)[C@H]3[C@@H](O)C[C@@]21C [compound 29, HC acetate]
[1]
  RM: −0.12

## CC(=O)[C@@]1(O)CC[C@H]2[C@@H]3CCC4=CC(=O)CC[C@]4(C)[C@H]3CC[C@@]21C [compound 9, 17-α-Hydroxyprogesterone]
[2]; compounds 1 to 16
  logKp^exp: −3.22

## COc1ccc2cc([C@H](C)C(=O)O)ccc2c1 [compound 46, Naproxen]
[1]
  RM: −0.16

## CC(=O)S[C@@H]1CC2=CC(=O)CC[C@]2(C)[C@H]2CC[C@@]3(C)[C@@H](CC[C@@]34CCC(=O)O4)[C@H]12 [compound 35, Spironolactone]
[1]
  RM: 0.14

## C[C@]12CCC(=O)C=C1CC[C@@H]1[C@@H]2[C@@H](O)C[C@@]2(C)[C@H]1CC[C@]2(O)C(=O)COC(=O)CCCCCO [compound 23, HC 6-hydroxyhexanoate]
[2]; [3]
  logKp^exp: −3.04

## CC(=O)[C@H]1CC[C@H]2[C@@H]3CC=C4C[C@@H](O)CC[C@]4(C)[C@H]3CC[C@]12C [compound 8, Pregnenolone]
[2]; compounds 1 to 16
  logKp^exp: −2.82

## C[C@]12C=CC(=O)C=C1CC[C@@H]1[C@@H]2[C@@H](O)C[C@@]2(C)[C@H]1CC[C@]2(O)C(=O)CO [compound 4, Prednisolone]
[1]
  RM: −0.33
[2]; compounds 1 to 16
  logKp^exp: −4.35

## C[C@@H]1C[C@H]2[C@@H]3CCC4=CC(=O)C=C[C@]4(C)[C@@]3(F)[C@@H](O)C[C@]2(C)[C@@]1(O)C(=O)CO [compound 1, Dexamethasone]
[1]
  RM: −0.35

## O=C(O)c1ccccc1O [compound 43, Salicylic acid]
[1]
  RM: −0.37
[2]; [4]
  logKp^exp: −2.84

## C[C@]12CC[C@H]3[C@@H](CCC4=CC(=O)CC[C@@]43C)[C@@H]1CC[C@@H]2O [compound 12, Testosterone]
[2]; compounds 1 to 16
  logKp^exp: −2.65

## C[C@H]1O[C@@H](O[C@H]2[C@@H](O)C[C@H](O[C@H]3[C@@H](O)C[C@H](O[C@H]4CC[C@@]5(C)[C@H](CC[C@@H]6[C@@H]5C[C@@H](O)[C@]5(C)[C@@H](C7=CC(=O)OC7)CC[C@]65O)C4)O[C@@H]3C)O[C@@H]2C)C[C@H](O)[C@@H]1O [compound 37, Digoxin]
[1]
  RM: −0.91

## C#C[C@]1(O)CC[C@H]2[C@@H]3[C@H](C)CC4=C(CCC(=O)C4)[C@H]3CC[C@@]21C [compound 38, Tibolone]
[1]
  RM: 0.33

## CC(=O)OCC(=O)[C@@]1(O)CC[C@H]2[C@@H]3CCC4=CC(=O)CC[C@]4(C)[C@H]3C(=O)C[C@@]21C [compound 31, Cortisone acetate]
[1]
  RM: −0.12

## CC(C)Cc1ccc(C(C)C(=O)O)cc1 (centres unmarked) [compound 39, Ibuprofen]
[1]
  RM: 0.08
[2]; [4]
  logKp^exp: −1.44

## C[C@]12CCC(=O)C=C1CC[C@@H]1[C@@H]2CC[C@@]2(C)[C@H]1CC[C@]2(C)O [compound 33, Methyltestosterone]
[1]
  RM: 0.41

## C[C@]12CC[C@@H]3c4ccc(O)cc4CC[C@H]3[C@@H]1CCC2=O [compound 5, Estrone]
[1]
  RM: 0.09
[2]; compounds 1 to 16
  logKp^exp: −2.44

## COc1ccc2c(c1)c(CC(=O)O)c(C)n2C(=O)c1ccc(Cl)cc1 [compound 44, Indomethacin]
[1]
  RM: −0.07
